Where two headings read alike, the source gives them in different places.
Key:
SHP2 = SHP2 (Homo sapiens (Human), UniProt Q06124); assay: SHP2 Biochemical Assay (DiFMUP conversion, pIRS1-activated)
Procedure, shortened: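 Human SHP2 (10 pM) pre-incubated 30 min with compound and […] pIRS1 activating peptide, then 50 μM DiFMUP added; buffer 25 mM Bis-Tris propane pH 7.0, 150 mM NaCl, 5% DMSO. Fluorescence rate (ex 360/em 450 nm) over 30 min; IC50 by four-parameter fit, averaged across experiments.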

[1] = tested on: pERK (phospho-p44/42 ERK) in HCC827 cells; assay: Cellular pERK Inhibition Assay, Method A (In-Cell Western); type: cell-based; settings: Homo sapiens
Procedure, shortened: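 HCC827 cells in RPMI/10% FBS were treated with compounds in serum-free medium (0.2% DMSO final) at 37 °C for the indicated time, in quadruplicate. Fixed cells were immunostained for phospho-p44/42 ERK and read by infrared imaging. Blank-subtracted signal was expressed as % of DMSO control; IC50 from four-parameter logistic fit, averaged across experiments.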

[2] = Table 19, head prints unit as "-M"
[3] = Table 19, head prints unit as "-M", read-out: pERK (IC50) Method A
[4] = Table 20, read-out: pERK (IC50, μM) Method A

IC50 (SHP2; [2]) [nM]	IC50 [1, 3] [µM]	Structure (SMILES)	IC50 (SHP2; Table 20) [nM]	IC50 [1, 4] [µM]
–	–	Cn1nc2ccc(-c3n[nH]c4nc(N5[C@@H]6CC[C@H]5C[C@@](C)(N)C6)n(C)c(=O)c34)c(Cl)c2c1Cl [Example 161, 6-(endo-3-amino-3-methyl-8-azabicyclo[3.2.1]octan-8-yl)-3-(3,4-dichloro-2-methyl-2H-indazol-5-yl)-5-methyl-1,5-dihydro-4H-pyrazolo[3,4-d]pyrimidin-4-one]	12	0.26
–	–	CCN[C@@H]1C[C@@H]2CC[C@H]1N2c1nc2[nH]nc(-c3ccc4nn(C)c(Cl)c4c3Cl)c2c(=O)n1C [Example 177, 3-(3,4-dichloro-2-methyl-2H-indazol-5-yl)-6-((1R,2R,4S)-2-(ethylamino)-7-azabicyclo[2.2.1]heptan-7-yl)-5-methyl-1,5-dihydro-4H-pyrazolo[3,4-d]pyrimidin-4-one]	95	1.4
330	3.1	Cn1cc2c(Cl)c(-c3c[nH]c4nc(N5CC(N)C(F)(F)C5)n(C)c(=O)c34)ccc2n1 (stereo not drawn) [Example 53, 2-(4-amino-3,3-difluoropyrrolidin-1-yl)-5-(4-chloro-2-methyl-2H-indazol-5-yl)-3-methyl-3,7-dihydro-4H-pyrrolo[2,3-d]pyrimidin-4-one]	–	–
23	0.36	Cn1cc2c(Cl)c(-c3c[nH]c4nc(N5CC6C(N)C6C5)n(C)c(=O)c34)ccc2n1 (stereo not drawn) [Example 62, 2-(6-amino-3-azabicyclo[3.1.0]hexan-3-yl)-5-(4-chloro-2-methyl-2H-indazol-5-yl)-3-methyl-3,7-dihydro-4H-pyrrolo[2,3-d]pyrimidin-4-one]	–	–
96	4.5	Cn1cc2c(Cl)c(-c3c[nH]c4nc(N5CCC6NCC6C5)n(C)c(=O)c34)ccc2n1 (stereo not drawn) [Example 40, 2-(3,7-diazabicyclo[4.2.0]octan-3-yl)-5-(4-chloro-2-methyl-2H-indazol-5-yl)-3-methyl-3,7-dihydro-4H-pyrrolo[2,3-d]pyrimidin-4-one]	–	–
33	0.43	Cn1cc2c(Cl)c(-c3c[nH]c4nc(N5CCC(F)(CN)CC5)n(C)c(=O)c34)ccc2n1 [Example 65, 2-(4-(aminomethyl)-4-fluoropiperidin-1-yl)-5-(4-chloro-2-methyl-2H-indazol-5-yl)-3-methyl-3,7-dihydro-4H-pyrrolo[2,3-d]pyrimidin-4-one]	–	–
11	0.12	CCn1cc2c(Cl)c(-c3c[nH]c4nc(N5CCC6(CC5)COC[C@H]6N)n(C)c(=O)c34)ccc2n1 [Example 12, (S)-2-(4-amino-2-oxa-8-azaspiro[4.5]decan-8-yl)-5-(4-chloro-2-ethyl-2H-indazol-5-yl)-3-methyl-3,7-dihydro-4H-pyrrolo[2,3-d]pyrimidin-4-one]	–	–
110	1.5	C[C@H]1CN(c2nc3[nH]cc(-c4ccc5nn(C)cc5c4Cl)c3c(=O)n2C)CCN1 [Example 45, (S)-5-(4-chloro-2-methyl-2H-indazol-5-yl)-3-methyl-2-(3-methylpiperazin-1-yl)-3,7-dihydro-4H-pyrrolo[2,3-d]pyrimidin-4-one]	–	–
–	–	Cn1nc2ccc(-c3c[nH]c4nc(N5[C@H]6CC[C@@H]5[C@@H](F)[C@@H](N)C6)n(C)c(=O)c34)c(Cl)c2c1Cl [Example 163, 2-((1R,2S,3S,5S)-3-amino-2-fluoro-8-azabicyclo[3.2.1]octan-8-yl)-5-(3,4-dichloro-2-methyl-2H-indazol-5-yl)-3-methyl-3,7-dihydro-4H-pyrrolo[2,3-d]pyrimidin-4-one]	2	0.012
4	0.083	Cn1c(N2C[C@@H]3CC[C@H]2[C@H]3N)nc2[nH]nc(-c3ccc4ncsc4c3Cl)c2c1=O (racemic) [Example 134, rac-((1S,4S,7S)-7-amino-2-azabicyclo[2.2.1]heptan-2-yl)-3-(7-chlorobenzo[d]thiazol-6-yl)-5-methyl-1,5-dihydro-4H-pyrazolo[3,4-d]pyrimidin-4-one]	–	–
6.3	0.053	CCn1cc2c(Cl)c(-c3c[nH]c4nc(N5CCC6(CCC[C@H]6N)CC5)n(C)c(=O)c34)ccc2n1 [Example 11, (R)-2-(1-amino-8-azaspiro[4.5]decan-8-yl)-5-(4-chloro-2-ethyl-2H-indazol-5-yl)-3-methyl-3,7-dihydro-4H-pyrrolo[2,3-d]pyrimidin-4-one]	–	–
73	1.1	C[C@@H]1CN(c2nc3[nH]cc(-c4ccc5nn(C)cc5c4Cl)c3c(=O)n2C)C[C@@H]1N [Example 56, 2-((3R,4R)-3-amino-4-methylpyrrolidin-1-yl)-5-(4-chloro-2-methyl-2H-indazol-5-yl)-3-methyl-3,7-dihydro-4H-pyrrolo[2,3-d]pyrimidin-4-one]	–	–
5.5	0.048	C[C@@H]1OCC2(CCN(c3nc4[nH]cc(-c5ccc6nn(C)cc6c5Cl)c4c(=O)n3C)CC2)[C@@H]1N [Example 59, 2-((3S,4S)-4-amino-3-methyl-2-oxa-8-azaspiro[4.5]decan-8-yl)-5-(4-chloro-2-methyl-2H-indazol-5-yl)-3-methyl-3,7-dihydro-4H-pyrrolo[2,3-d]pyrimidin-4-one]	–	–
15	0.21	CCn1cc2c(Cl)c(-c3c[nH]c4nc(N5CCC(C)(N)CC5)n(C)c(=O)c34)ccc2n1 [Example 3, 2-(4-amino-4-methylpiperidin-1-yl)-5-(4-chloro-2-ethyl-2H-indazol-5-yl)-3-methyl-3,7-dihydro-4H-pyrrolo[2,3-d]pyrimidin-4-one]	–	–

Structure (SMILES)	IC50 (SHP2; [2]) [nM]	IC50 [1, 3] [µM]	IC50 (SHP2; Table 20) [nM]	IC50 [1, 4] [µM]
CN(C)C(=O)CCn1nc2ccc(-c3c[nH]c4nc(N5C6CCC5CNC6)n(C)c(=O)c34)c(Cl)c2c1Cl [Example 89, 3-(5-(2-(3,8-diazabicyclo[3.2.1]octan-8-yl)-3-methyl-4-oxo-4,7-dihydro-3H-pyrrolo[2,3-d]pyrimidin-5-yl)-3,4-dichloro-2H-indazol-2-yl)-N,N-dimethylpropanamide]	14	0.54	–	–
Cc1cc(-c2c[nH]c3nc(N4[C@@H]5CC[C@H]4C[C@@H](N)C5)n(C)c(=O)c23)c(Cl)c2cn(C)nc12 [Example 76, 2-(endo-3-amino-8-azabicyclo[3.2.1]octan-8-yl)-5-(4-chloro-2,7-dimethyl-2H-indazol-5-yl)-3-methyl-3,7-dihydro-4H-pyrrolo[2,3-d]pyrimidin-4-one]	31	0.18	–	–
Cn1cc2c(F)c(-c3c[nH]c4nc(N5[C@@H]6CC[C@H]5C[C@@H](N)C6)n(C)c(=O)c34)ccc2n1 [Example 70, 2-(endo-3-amino-8-azabicyclo[3.2.1]octan-8-yl)-5-(4-fluoro-2-methyl-2H-indazol-5-yl)-3-methyl-3,7-dihydro-4H-pyrrolo[2,3-d]pyrimidin-4-one]	29	0.19	–	–
CN[C@H]1C[C@H]2CC[C@@H](C1)N2c1nc2[nH]cc(-c3ccc4nn(C)cc4c3Cl)c2c(=O)n1C [Example 14, 5-(4-chloro-2-methyl-2H-indazol-5-yl)-3-methyl-2-(endo-3-(methylamino)-8-azabicyclo[3.2.1]octan-8-yl)-3,7-dihydro-4H-pyrrolo[2,3-d]pyrimidin-4-one]	24	0.31	–	–
CCn1nc2ccc(-c3c[nH]c4nc(N5[C@H]6CC[C@@H]5[C@H](N)C6)n(C)c(=O)c34)c(Cl)c2c1C(F)F [Example 109, 2-((1R,2R,4S)-2-amino-7-azabicyclo[2.2.1]heptan-7-yl)-5-(4-chloro-3-(difluoromethyl)-2-ethyl-2H-indazol-5-yl)-3-methyl-3,7-dihydro-4H-pyrrolo[2,3-d]pyrimidin-4-one]	6.5	0.12	–	–
CCn1nc2ccc(-c3c[nH]c4nc(N5[C@H]6CC[C@@H]5[C@H](N)C6)n(C)c(=O)c34)c(Cl)c2c1C#N [Example 159, 5-(2-((1R,2R,4S)-2-Amino-7-azabicyclo[2.2.1]heptan-7-yl)-3-methyl-4-oxo-4,7-dihydro-3H-pyrrolo[2,3-d]pyrimidin-5-yl)-4-chloro-2-ethyl-2H-indazole-3-carbonitrile]	3.5	0.15	–	–
Cn1cc2c(Cl)c(-c3c[nH]c4nc(N5C6CNCC5C6)n(C)c(=O)c34)ccc2n1 [Example 29, 2-(3,6-diazabicyclo[3.1.1]heptan-6-yl)-5-(4-chloro-2-methyl-2H-indazol-5-yl)-3-methyl-3,7-dihydro-4H-pyrrolo[2,3-d]pyrimidin-4-one]	220	2.4	–	–
CN[C@@H]1C[C@@H]2CC[C@H]1N2c1nc2[nH]cc(-c3ccc4nn(C)cc4c3Cl)c2c(=O)n1C [Example 97, 5-(4-chloro-2-methyl-2H-indazol-5-yl)-3-methyl-2-((1R,2R,4S)-2-(methylamino)-7-azabicyclo[2.2.1]heptan-7-yl)-3,7-dihydro-4H-pyrrolo[2,3-d]pyrimidin-4-one]	7.7	0.082	–	–
CCn1cc2c(Cl)c(-c3c[nH]c4nc(N5[C@@H]6CC[C@H]5C[C@@](C)(N)C6)n(C)c(=O)c34)ccc2n1 [Example 15, 2-(endo-3-amino-3-methyl-8-azabicyclo[3.2.1]octan-8-yl)-5-(4-chloro-2-ethyl-2H-indazol-5-yl)-3-methyl-3,7-dihydro-4H-pyrrolo[2,3-d]pyrimidin-4-one]	17	0.5	–	–
Cn1cc2c(Cl)c(-c3c[nH]c4nc(N5[C@@H]6CC[C@H]5[C@H](F)[C@H](N)C6)n(C)c(=O)c34)ccc2n1 (racemic) [Example 26, rac-2-((1S,2R,3R,5R)-3-amino-2-fluoro-8-azabicyclo[3.2.1]octan-8-yl)-5-(4-chloro-2-methyl-2H-indazol-5-yl)-3-methyl-3,7-dihydro-4H-pyrrolo[2,3-d]pyrimidin-4-one]	11	0.088	–	–

— US12037345B2, “Heterobicyclic compounds for inhibiting the activity of SHP2” (TAIHO PHARMACEUTICAL CO., LTD., priority 2018, dated 2024)
